Measured values: patent publication US11845752B2, “Substituted imidazo[1,5-a]pyrazines for the treatment of hepatitis B” (ALIGOS THERAPEUTICS, INC., priority 2020, dated 2023)
Where two headings read alike, the source gives them in different places.

System: HBV
Experiment: HBV-DNA antiviral assay using HepG2.117 cells (intracellular HBV DNA by qPCR)
Assay type: cell-based, HBV genotype D
Settings: HBV DNA inhibition, 3 days incubation, read-out: EC50
Method in brief: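 HepG2.117 cells (stably integrated genotype D HBV, Tet-off) seeded without doxycycline to induce pgRNA, then treated next day with 9 concentrations (4-fold dilutions, 2% DMSO) for 3 days at 37 °C. Intracellular HBV DNA quantified by qPCR against standard curve, viability by ATP content; inhibition relative to DMSO control, EC50/EC90/CC50 by non-linear regression.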

[1] = Hepatitis B virus, HepG2.117, 72 h

Cc1nnc(-c2ccccc2CNC(=O)c2c3n(c(=O)n2-c2ccc(OC4CC4)cc2)CC(C)N(C(=O)c2ccc(Br)c(C#N)c2)C3)o1 (single isomer, unassigned) [Compound 5a, (6S*)-7-(4-bromo-3-cyano-benzoyl)-2-[4-(cyclopropoxy)phenyl]-6-methyl-N-[[2-(5-methyl-1,3,4-oxadiazol-2-yl)phenyl]methyl]-3-oxo-6,8-dihydro-5H-imidazo[1,5-a]pyrazine-1-carboxamide]
EC50 [1]: 500 to 5000 nM

Cc1cnn(-c2ccccc2CNC(=O)c2c3n(c(=O)n2-c2ccc(OC4CC4)cc2)CC(C)N(C(=O)c2ccc(Br)c(Cl)c2)C3)c1 (single isomer, unassigned) [Compound 6a, 7-(4-bromo-3-chloro-benzoyl)-2-[4-(cyclopropoxy)phenyl]-6-methyl-N-[[2-(4-methylpyrazol-1-yl)phenyl]methyl]-3-oxo-6,8-dihydro-5H-imidazo[1,5-a]pyrazine-1-carboxamide]
EC50 [1]: 50 to 500 nM

Cc1cnn(-c2ccccc2CNC(=O)c2c3n(c(=O)n2-c2ccc(OC4CC4)cc2)CC(C)N(C(=O)c2ccc(Br)c(Cl)c2)C3)c1 (single isomer, unassigned) [Compound 6b, 7-(4-bromo-3-chloro-benzoyl)-2-[4-(cyclopropoxy)phenyl]-6-methyl-N-[[2-(4-methylpyrazol-1-yl)phenyl]methyl]-3-oxo-6,8-dihydro-5H-imidazo[1,5-a]pyrazine-1-carboxamide]
EC50: < 50 nM

CC1Cn2c(c(C(=O)NCc3ccccc3-c3cccnn3)n(-c3ccc(OC4CC4)cc3)c2=O)CN1C(=O)c1ccc(Br)c(Cl)c1 (single isomer, unassigned) [Compound 7a, 7-(4-bromo-3-chloro-benzoyl)-2-[4-(cyclopropoxy)phenyl]-6-methyl-3-oxo-N-[(2-pyridazin-3-ylphenyl)methyl]-6,8-dihydro-5H-imidazo[1,5-a]pyrazine-1-carboxamide]
EC50 [1]: 50 to 500 nM

CC1Cn2c(c(C(=O)NCc3ccccc3-c3cccnn3)n(-c3ccc(OC4CC4)cc3)c2=O)CN1C(=O)c1ccc(Br)c(Cl)c1 (single isomer, unassigned) [Compound 7b, 7-(4-bromo-3-chloro-benzoyl)-2-[4-(cyclopropoxy)phenyl]-6-methyl-3-oxo-N-[(2-pyridazin-3-ylphenyl)methyl]-6,8-dihydro-5H-imidazo[1,5-a]pyrazine-1-carboxamide]
EC50: < 50 nM

CC1Cn2c(c(C(=O)NCc3ccccc3-c3cc(N)ncn3)n(-c3ccc(OC4CC4)cc3)c2=O)CN1C(=O)c1ccc(Br)c(Cl)c1 (single isomer, unassigned) [Compound 8a, N-[[2-(6-aminopyrimidin-4-yl)phenyl]methyl]-7-(4-bromo-3-chloro-benzoyl)-2-[4-(cyclopropoxy)phenyl]-6-methyl-3-oxo-6,8-dihydro-5H-imidazo[1,5-a]pyrazine-1-carboxamide]
EC50 [1]: 50 to 500 nM

CC1Cn2c(c(C(=O)NCc3ccccc3-c3cc(N)ncn3)n(-c3ccc(OC4CC4)cc3)c2=O)CN1C(=O)c1ccc(Br)c(Cl)c1 (single isomer, unassigned) [Compound 8b, N-[[2-(6-aminopyrimidin-4-yl)phenyl]methyl]-7-(4-bromo-3-chloro-benzoyl)-2-[4-(cyclopropoxy)phenyl]-6-methyl-3-oxo-6,8-dihydro-5H-imidazo[1,5-a]pyrazine-1-carboxamide]
EC50: < 50 nM

CC1Cn2c(c(C(=O)NCc3ccccc3-c3ccncn3)n(-c3ccc(OC4CC4)cc3)c2=O)CN1C(=O)c1ccc(Br)c(Cl)c1 (single isomer, unassigned) [Compound 9a, 7-(4-bromo-3-chloro-benzoyl)-2-[4-(cyclopropoxy)phenyl]-6-methyl-3-oxo-N-[(2-pyrimidin-4-ylphenyl)methyl]-6,8-dihydro-5H-imidazo[1,5-a]pyrazine-1-carboxamide]
EC50 [1]: 50 to 500 nM

CC1Cn2c(c(C(=O)NCc3ccccc3-c3ccncn3)n(-c3ccc(OC4CC4)cc3)c2=O)CN1C(=O)c1ccc(Br)c(Cl)c1 (single isomer, unassigned) [Compound 9b, 7-(4-bromo-3-chloro-benzoyl)-2-[4-(cyclopropoxy)phenyl]-6-methyl-3-oxo-N-[(2-pyrimidin-4-ylphenyl)methyl]-6,8-dihydro-5H-imidazo[1,5-a]pyrazine-1-carboxamide]
EC50: < 50 nM

CC1Cn2c(c(C(=O)NCc3ccccc3-c3ccc(N)nn3)n(-c3ccc(OC4CC4)cc3)c2=O)CN1C(=O)c1ccc(Br)c(Cl)c1 (single isomer, unassigned) [Compound 10a, N-[[2-(6-aminopyridazin-3-yl)phenyl]methyl]-7-(4-bromo-3-chloro-benzoyl)-2-[4-(cyclopropoxy)phenyl]-6-methyl-3-oxo-6,8-dihydro-5H-imidazo[1,5-a]pyrazine-1-carboxamide]
EC50: 500 to 5000 nM

CC1Cn2c(c(C(=O)NCc3ccccc3-c3ccc(N)nn3)n(-c3ccc(OC4CC4)cc3)c2=O)CN1C(=O)c1ccc(Br)c(Cl)c1 (single isomer, unassigned) [Compound 10b, N-[[2-(6-aminopyridazin-3-yl)phenyl]methyl]-7-(4-bromo-3-chloro-benzoyl)-2-[4-(cyclopropoxy)phenyl]-6-methyl-3-oxo-6,8-dihydro-5H-imidazo[1,5-a]pyrazine-1-carboxamide]
EC50: 50 to 500 nM

CC1Cn2c(c(C(=O)NCc3ccccc3-c3ccnc(N)n3)n(-c3ccc(OC4CC4)cc3)c2=O)CN1C(=O)c1ccc(Br)c(Cl)c1 (single isomer, unassigned) [Compound 11a, N-[[2-(2-aminopyrimidin-4-yl)phenyl]methyl]-7-(4-bromo-3-chloro-benzoyl)-2-[4-(cyclopropoxy)phenyl]-6-methyl-3-oxo-6,8-dihydro-5H-imidazo[1,5-a]pyrazine-1-carboxamide]
EC50 [1]: < 50 nM

CC1Cn2c(c(C(=O)NCc3ccccc3-c3ccnc(N)n3)n(-c3ccc(OC4CC4)cc3)c2=O)CN1C(=O)c1ccc(Br)c(Cl)c1 (single isomer, unassigned) [Compound 11b, N-[[2-(2-aminopyrimidin-4-yl)phenyl]methyl]-7-(4-bromo-3-chloro-benzoyl)-2-[4-(cyclopropoxy)phenyl]-6-methyl-3-oxo-6,8-dihydro-5H-imidazo[1,5-a]pyrazine-1-carboxamide]
EC50: 50 to 500 nM

Cc1cc(C(=O)N2Cc3c(C(=O)NCc4ccccc4-c4ccncn4)n(-c4ccc(OC5CC5)cc4)c(=O)n3CC2C)ccc1Br (single isomer, unassigned) [Compound 12a, 7-(4-bromo-3-methyl-benzoyl)-2-[4-(cyclopropoxy)phenyl]-6-methyl-3-oxo-N-[(2-pyrimidin-4-ylphenyl)methyl]-6,8-dihydro-5H-imidazo[1,5-a]pyrazine-1-carboxamide]
EC50 [1]: 50 to 500 nM

Cc1cc(C(=O)N2Cc3c(C(=O)NCc4ccccc4-c4ccncn4)n(-c4ccc(OC5CC5)cc4)c(=O)n3CC2C)ccc1Br (single isomer, unassigned) [Compound 12b, 7-(4-bromo-3-methyl-benzoyl)-2-[4-(cyclopropoxy)phenyl]-6-methyl-3-oxo-N-[(2-pyrimidin-4-ylphenyl)methyl]-6,8-dihydro-5H-imidazo[1,5-a]pyrazine-1-carboxamide]
EC50: < 50 nM

CC1Cn2c(c(C(=O)NCc3ccccc3-c3ccncn3)n(-c3ccc(OC4CC4)cc3)c2=O)CN1C(=O)c1ccc(Br)c(C(F)(F)F)c1 (single isomer, unassigned) [Compound 13a, 7-[4-bromo-3-(trifluoromethyl)benzoyl]-2-[4-(cyclopropoxy)phenyl]-6-methyl-3-oxo-N-[(2-pyrimidin-4-ylphenyl)methyl]-6,8-dihydro-5H-imidazo[1,5-a]pyrazine-1-carboxamide]
EC50 [1]: 50 to 500 nM

CC1Cn2c(c(C(=O)NCc3ccccc3-c3ccncn3)n(-c3ccc(OC4CC4)cc3)c2=O)CN1C(=O)c1ccc(Br)c(C(F)(F)F)c1 (single isomer, unassigned) [Compound 13b, 7-[4-bromo-3-(trifluoromethyl)benzoyl]-2-[4-(cyclopropoxy)phenyl]-6-methyl-3-oxo-N-[(2-pyrimidin-4-ylphenyl)methyl]-6,8-dihydro-5H-imidazo[1,5-a]pyrazine-1-carboxamide]
EC50: < 50 nM

CC1Cn2c(c(C(=O)NCc3ccccc3-c3ccncn3)n(-c3ccc(OC4CC4)cc3)c2=O)CN1C(=O)c1ccc(Br)c(C(F)F)c1 (single isomer, unassigned) [Compound 16a, 7-[4-bromo-3-(difluoromethyl)benzoyl]-2-[4-(cyclopropoxy)phenyl]-6-methyl-3-oxo-N-[(2-pyrimidin-4-ylphenyl)methyl]-6,8-dihydro-5H-imidazo[1,5-a]pyrazine-1-carboxamide]
EC50 [1]: 50 to 500 nM

CC1Cn2c(c(C(=O)NCc3ccccc3-c3ccncn3)n(-c3ccc(OC4CC4)cc3)c2=O)CN1C(=O)c1ccc(Br)c(C(F)F)c1 (single isomer, unassigned) [Compound 16b, 7-[4-bromo-3-(difluoromethyl)benzoyl]-2-[4-(cyclopropoxy)phenyl]-6-methyl-3-oxo-N-[(2-pyrimidin-4-ylphenyl)methyl]-6,8-dihydro-5H-imidazo[1,5-a]pyrazine-1-carboxamide]
EC50: < 50 nM

COc1cnn(-c2ccccc2CNC(=O)c2c3n(c(=O)n2-c2ccc(OC4CC4)cc2)CC(C)N(C(=O)c2ccc(Br)c(Cl)c2)C3)c1 (single isomer, unassigned) [Compound 17a, 7-(4-bromo-3-chloro-benzoyl)-2-[4-(cyclopropoxy)phenyl]-N-[[2-(4-methoxypyrazol-1-yl)phenyl]methyl]-6-methyl-3-oxo-6,8-dihydro-5H-imidazo[1,5-a]pyrazine-1-carboxamide]
EC50 [1]: 50 to 500 nM

COc1cnn(-c2ccccc2CNC(=O)c2c3n(c(=O)n2-c2ccc(OC4CC4)cc2)CC(C)N(C(=O)c2ccc(Br)c(Cl)c2)C3)c1 (single isomer, unassigned) [Compound 17b, 7-(4-bromo-3-chloro-benzoyl)-2-[4-(cyclopropoxy)phenyl]-N-[[2-(4-methoxypyrazol-1-yl)phenyl]methyl]-6-methyl-3-oxo-6,8-dihydro-5H-imidazo[1,5-a]pyrazine-1-carboxamide]
EC50: < 50 nM
